How the values were obtained:
[1] = test system: Rats; test: Taste reactivity studies (conditioned gaping, saccharin preference); format: in vivo, rat; details: for Mean (±SEM) saccharin preference ratio: 2-bottle preference test
Method: Rats were implanted with intraoral cannulae and 24 hrs prior to the surgical procedure, they were administered a prophylactic antibiotic (Derapin, 100 mg/kg, sc; Ayerst). On the day of surgery, the rats were anaesthetized with isofluorane gas and were administered Anafen (7.0 mg/kg, sc; Merial), a nonsteroidal anti-inflammatory drug (NSAID) with analgesic properties. A 3.0 cm^2 patch of fur was shaved at the back of the neck just above the scapula and the area was surgically prepared [Betadine surgical scrub (Purdue Frederick) and alcohol]. A thin-walled 15-gauge stainless steel needle was inserted at the back of the neck, directed s.c., around the ear and brought out behind the first molar inside the mouth. A length of IntraMedic polyetheylene tubing with an inner diameter of 0.86 mm and an outer diameter of 1.27 mm was then run through the needle after which the needle was removed. Two circular elastic discs were placed over the tubing and drawn to the exposed skin at the back of the neck for the purpose of stabilizing the cannula. The tubing was held secure in the oral cavity by an o-ring, which was sealed behind the tubing prior to cannulation surgery. For the purposes of conditioning and testing, the cannula was connected to the infusion pump (Harvard Apparatus, South Natick, Mass.) for delivery of the solution by slipping the tubing of the cannula inside a second polyethylene tube (inner diameter 1.19 mm, outer diameter 1.70 mm) attached to the infusion pump. Two rats were subsequently removed from the study due to an ineffective cannula.
Five days after surgery and prior to conditioning (day 1), rats were individually placed in the Plexiglas taste reactivity chamber (22.5×26×20 cm) with their cannula attached to the infusion pump for fluid delivery. The rats were habituated to the taste reactivity procedure by infusing them with water for a period of 5 min at a rate of 1.0 ml/min after which they were returned to their home cage. On day 2, the rats were individually taken to the chamber for a single conditioning trial. They were intraorally infused with 0.1% saccharin solution for 5 min at a rate of 1.0 ml/min while their orofacial and somatic responses were videotaped from a mirror at a 45° angle below the chamber. Immediately after the saccharin infusion the rats were injected with the appropriate dose of Compound 3, according to random assignment: 0.0 mg/kg (vehicle; n=8), 2.0 mg/kg (n=7), 4.0 mg/kg (n=7), 8.0 mg/kg (n=8). On day 5, the animals were given a second adaptation trial with a 5-min intraoral infusion of water.
Taste reactivity testing occurred on day 6, 96 hr after conditioning. The rats were taken to the chamber and following a period of 1 min were infused with 0.1% saccharin solution over a period of 5 min (1.0 ml/min) while being videotaped. Immediately after the session, the rats were returned to their home cage. On day 7, following 15 hr of water deprivation, the rats were given a 2-bottle preference test. The rats were presented with a graduated tube containing 0.1% saccharin solution and a graduated tube containing water for a period of 120 min. The amount consumed from each bottle during the 120 min of drinking was converted to a preference score: Amount consumed of saccharin solution/amount consumed of saccharin+amount consumed of water. The taste reactivity videotapes were scored using the Observer (Noldus Information Technology, Sterling, Va.) event-recording program. The behaviors scored included the frequency of gaping, chin rubs, ingestive reactions, passive drips and activity. Gaping was defined as rapid, large-amplitude opening of the mandible with retraction of the corners of the mouth. Chin rubbings were defined as chin or mouth in direct contact with the floor or wall of the chamber and forward projections of the body. […]

[2] = test system: Rats; test: Food intake studies using different diets; format: in vivo, rat; details: 2.0, 4.0, 8.0 mg/kg IP 30 min prior; high-fat, high-carbohydrate, lab chow
Source text: Animals were assigned to three different diet conditions (n=10/group). One group was assigned to a high-fat diet (HF; Diet # D12451, Research Diets, New Brunswick, N.J., 20% protein, 45% fat, 35% carbohydrate). A second group was given a high-carbohydrate diet (HC; Diet # D12450B, Research Diets, New Brunswick, N.J., 20% protein, 10% fat, 70% carbohydrate). The remaining group was fed a standard chow diet (LC, 5P00 Prolab RMH 3000, PMI Nutrition International, St. Louis, Mo.; 26% protein, 14% fat, 60% carbohydrate). Food blocks from each type of diet were nutritionally complete and similar in appearance and weight. Rats were given free access to lab chow in their home cages until the beginning of a five day habituation period. On the first day of habituation, rats were assigned to their respective dietary groups and moved into suspended wire mesh test cages containing their assigned food type. After spending 30 min in the test cage, they were returned to their home cages. After this initial habituation period, rats were given free access to lab chow in their home cages every Thursday afternoon through Monday afternoon. Each Tuesday and Wednesday, rats spent 30 min in the test cages with their assigned diets. On Thursdays, the injected animals were placed in the test cages with a pre-weighed amount of assigned food. A piece of cardboard was placed underneath the chamber to catch spillage. […]

[3] = target: T1, hCB2 receptor (Homo sapiens, UniProt P34972); test: [3H]CP55,940 competitive binding assay, CB2 (HEK293 cells expressing hCB2); details: against [3H]CP55,940; HEK293 hCB2 membranes
T1 construct: expressed in transfected cells; host or cells: HEK293
Method: Compounds were tested for their CB1 and CB2 receptor using membrane preparations from rat brain or HEK293 cells expressing hCB2 receptor, respectively, and [^3H]CP55,940 as previously described 1, 36-38. Stock solutions of the compounds (10 mM in DMSO) were diluted in TME buffer (50 mM Tris-HCL, 3 mM MgCl2, 100 mM NaCl, 0.2 mM EDTA, pH 7.4) with 0.1% BSA and transferred to 96 well plates containing [^3H]CP55,940 (specific activity 128 Ci/mmol; NIDA) at a final concentration of 0.76 nM. Non-specific binding was assessed in the presence of 100 nM CP55,940. The binding reaction was initiated with the addition of the respective membrane suspension (˜50 μg membrane protein) followed by incubation at 30° C. with gentle agitation in a shaking water bath for 60 minutes. […] The filter plates were washed with ice-cold wash buffer (50 mM Tris-base, 5 mM MgCl2 with 0.5% BSA) and bound radioactivity was determined using a Packard TopCount Scintillation Counter. The results were analyzed using nonlinear regression to determine the actual IC50 and the Ki values of the ligand (Prizm by GraphPad Software, Inc.). All data were in duplicate with IC50 and Ki values determined from at least two independent experiments.
The affinity of a compound for CB1 vs. CB2 is determined by the ratio of the inhibitory constants (Ki), as determined by the competitive binding assay.

T1 sequence (P34972 whole entry): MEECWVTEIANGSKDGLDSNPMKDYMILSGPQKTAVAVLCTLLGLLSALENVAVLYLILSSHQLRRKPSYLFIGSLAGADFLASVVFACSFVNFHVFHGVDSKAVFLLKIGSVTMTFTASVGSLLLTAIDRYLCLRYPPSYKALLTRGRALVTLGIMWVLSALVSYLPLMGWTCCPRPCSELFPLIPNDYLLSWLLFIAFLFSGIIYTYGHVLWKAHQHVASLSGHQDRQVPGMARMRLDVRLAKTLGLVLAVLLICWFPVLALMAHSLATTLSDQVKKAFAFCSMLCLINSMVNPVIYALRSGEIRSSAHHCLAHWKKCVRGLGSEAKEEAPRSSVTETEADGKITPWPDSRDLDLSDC

Compound: Cc1c(C(=O)NN2CCCCC2)nn(-c2ccc(Cl)cc2Cl)c1-c1ccc(C#CCCC#N)cc1 [Compound 3]
- ingestion (hedonic) taste reactions, Mean±SEM ([1]; 2.0 mg/kg): 10.5 (3.2)
- Mean (±SEM) saccharin preference ratio ([1]; 2.0 mg/kg): 0.411 (0.059)
- ingestion (hedonic) taste reactions, Mean±SEM ([1]; 4.0 mg/kg): 4.5 (1.5)
- Mean (±SEM) saccharin preference ratio ([1]; 4.0 mg/kg): 0.298 (0.074)
- ingestion (hedonic) taste reactions, Mean±SEM ([1]; 8.0 mg/kg): 1.3 (0.5)
- Mean (±SEM) saccharin preference ratio ([1]; 8.0 mg/kg): 0.088 (+0.017)
- effect on chin rubbing or conditioned gaping ([1]; 2.0, 4.0, 8.0 mg/kg): no significant effects
- food intake over vehicle across all diet groups [2]: significantly suppressed food intake
- Ki [3]: 0.092 µM

Reference: patent US8293211B2, “CB1 receptor antagonists and uses thereof” (MAKScientific, LLC, priority 2007, dated 2012)
